Measurements published in patent US7741521B2, “Inhibition of bid-induced cell-death using small organic molecules” (The Burnham Institute, priority 2004, dated 2010).

Molecular target: T1, tBID (Mus musculus, UniProt P70444)
T1 construct: tBID was produced by cleavage of purified BID with caspase-8, as known in the art; made in house; host or cells: E. coli BL21 (BID), then cleaved in vitro with caspase-8
T1 sequence (P70444 60-195 limits assumed): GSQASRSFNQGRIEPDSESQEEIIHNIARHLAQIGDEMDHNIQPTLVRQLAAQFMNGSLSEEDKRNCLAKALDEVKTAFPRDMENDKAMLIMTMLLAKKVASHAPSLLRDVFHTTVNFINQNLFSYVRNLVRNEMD
T1 sequence (P70444 1-59 partner limits assumed): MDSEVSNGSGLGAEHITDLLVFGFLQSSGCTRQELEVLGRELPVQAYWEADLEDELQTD
Assay: tBID-induced Smac release from isolated mitochondria
Format: biochemical
Conditions: for tBID-induced Smac release from mitochondria isolated from HeLa cells: 50 ng tBid
Method: 100 ng of tBID (cleaved by caspase 8) was pre-incubated with various concentrations of compounds for 15 minutes at 30° C. in HM buffer (10 mM Hepes, pH 7.4, 250 mM Mannitol, 10 mM KCl, 1.5 mM MgCl, 1 mM DTT, 1 mM EGTA), then 50 μg of isolated mitochondria from HCT116 cells were added to a final volume of 50 μl in HM buffer. After 1 hour incubation at 30° C., the samples were centrifuged at 10,000×g for 5 minutes at 4° C. and the supernatant was analyzed by SDS-PAGE/immunoblotting using anti-SMAC antibody.
Compounds II-IX were tested in vitro for their ability to inhibit BID-mediated release of Smac using mitochondria isolated from HeLa cells (FIG. 6A). The first lane represents mitochondria incubated without tBID. All others received 100 ng tBID without or with compounds. Each compound was tested at a concentration of 50 μM. […] To preliminarily investigate the mechanism by which compound II reduces Smac-release from isolated mitochondria, the tBID protein was treated with different concentrations of BI-6C9, after which it was incubated with mitochondria, followed by analysis of the bound and unbound fractions by immunoblotting using BID antibody. The concentration of mitochondria-bound tBID diminished in response to increasing concentrations of compound II.
About 50 ng of tBID cleaved by […] was pre-incubated for about 15 minutes at about 30° C. with various concentrations of compounds I, II, and X. Then, about 50 μg of isolated mitochondria from Hela cells were added to the reaction system. After about 1 hour of incubation at about 30° C., the samples were centrifuged at 10,000×g for about 5 minutes at about 4° C., and the supernatant was analyzed by SDS-PAGE/immunoblotting using Smac antibody. The results of the analysis are presented on FIG. 8. As shown by FIG. 9, compound I is a strong binder for BID.
Some results of comparative studies of compounds I and II are shown on FIG. 10. […] The first lane represents mitochondria incubated without tBID. All others received 50 ng tBid without or with bi-dentate compound.

| Structure (SMILES) | tBID-induced Smac release from mitochondria isolated from HeLa cells | inhibition at 50 µM (50 μM compound, isolated mitochondria) | reduction of tBID-induced Smac release (50 μM, 100 ng tBID, mitochondria isolated from HeLa cells) | decrease of Smac release, dose experiment (at concentrations as low as 20 μM) |
| --- | --- | --- | --- | --- |
| Nc1ccc(Sc2ccc(NC(=O)CNC(=O)c3ccc(O)cc3O)cc2)cc1 [Compound I, N-((4-(4-aminophenylthio)phenylcarbamoyl)methyl)-2,4-dihydroxybenzamide] | block |  |  |  |
| COc1ccc(S(=O)(=O)NCCCC(=O)Nc2ccc(Sc3ccc(N)cc3)cc2)cc1 [Compound II, N-[4-(4-amino-phenylsulfanyl)-phenyl]-4-(4-methoxy-benzenesulfonylamino)-butyramide] | block | 100% | significantly reduce | dramatically decreased |
